Laboratory results as given in patent US11691962B2 (eXIthera Pharmaceuticals, Inc., priority 2018, dated 2023).
pIC50: −log10 of the molar value.

How the values were obtained:
[1] = Caco-2 cell permeability assay; format: in vitro ADME, human; details: human, 37° C.; for Papp A→B at 60 min, 10 μM: Caco-2, apical to basolateral; for Papp B→A at 40 min, 10 μM: Caco-2, basolateral to apical
Experimental: The following procedure was used to determine the ability of a test compound to cross Caco-2 cells (human intestinal epithelial cells derived from a colorectal adenocarcinoma). The cells were seeded at 1×10^5 cells/cm^2 in 96-well Multiscreen™ plates (Millipore). Permeability assays were performed with the cells at days 21-25 post-seeding. Cells are typically used for 15 consecutive passages in culture.
This assay can be performed in either the apical to basolateral (A-B) or basolateral to apical (B-A) direction. The test compound was prepared at 10 μM in HBSS-MES (pH 6.5) or HBSS-HEPES (pH 7.4) with a final DMSO concentration of 1%. The working solution was then centrifuged and the supernatant added to the donor side. The assay plate was incubated at 37° C. with gentle shaking for 60 min or 40 min for the A-B or B-A assay, respectively. Samples were aliquoted from the donor side at time zero and the end point, and from the receiver side at the end point.
Reference compounds, propranolol (highly permeable), labetalol (moderately permeable), ranitidine (poorly permeable), and colchicine (P-glycoprotein substrate) were included in each assay.
Samples are analyzed by HPLC-MS/MS using selected reaction monitoring. The HPLC system consists of a binary LC pump with autosampler, a C-18 column, and a gradient.
The apparent permeability coefficient (Papp) of the test compound (Equation 2) and its recovery (Equation 3) are calculated as follows:
[formula] wherein A is the surface area of the cell monolayer (0.11 cm^2), C is concentration of the test compound expressed as peak area, D denotes donor, and R is receiver. “0”, “mid,” and “end” denote time at zero, mid-point, and end of the incubation, respectively. Δt is the incubation time. V is the volume of the donor or receiver.
This is most likely due to non-specific binding or degradation.

Factor Xa = Factor Xa (Homo sapiens (Human), UniProt P00742); test: Dose response assay for protease inhibitors: Factor Xa; format: biochemical; details: selectivity, Factor Xa over Factor XIa
Outline: (§1)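 Fluorogenic AMC-peptide cleavage in 20 mM Hepes pH 7.4, 150 mM NaCl, 0.02% Tween 20; 100 μM stock substrate dilution (Glp-Pro-Arg-AMC for thrombin/trypsin; Pro-Phe-Arg-AMC or Boc-Leu-Gly-Arg-AMC for Factor Xa). Enzyme diluted to 0.5 nM, added last to two-fold compound series; kinetic read at 30° C, 30 min (Factor Xa 60 min); IC50 fitted.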

Factor XIa = Factor XIa (Homo sapiens (Human), UniProt P03951); test: Factor XIa enzyme inhibition assay (dose response, fluorogenic AMC substrate); format: biochemical; details: read-out: hFXIa IC50
Outline: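 Human FXIa at 0.25 nM final with 50 μM final PyroGlu-Pro-Arg-AMC in 20 mM Hepes pH 7.4, 150 mM NaCl, 0.02% Tween 20. Two-fold serial compound dilutions; fluorescence read every minute for 30 min at 30° C. IC50 from a four-parameter Hill fit.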

Thrombin = Thrombin (Homo sapiens (Human), UniProt P00734); test: Dose response assay for protease inhibitors: thrombin; format: biochemical; details: selectivity, thrombin over Factor XIa
Outline: as §1

Factor Xa, sequence (P00742 235-488): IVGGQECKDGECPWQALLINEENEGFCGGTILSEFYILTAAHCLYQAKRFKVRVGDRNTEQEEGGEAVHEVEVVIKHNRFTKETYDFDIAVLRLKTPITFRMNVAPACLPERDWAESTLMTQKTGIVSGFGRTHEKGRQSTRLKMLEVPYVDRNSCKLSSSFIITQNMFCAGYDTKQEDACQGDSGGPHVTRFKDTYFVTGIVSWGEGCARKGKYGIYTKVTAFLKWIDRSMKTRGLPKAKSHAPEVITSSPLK
Factor Xa, sequence (P00742 41-179 partner): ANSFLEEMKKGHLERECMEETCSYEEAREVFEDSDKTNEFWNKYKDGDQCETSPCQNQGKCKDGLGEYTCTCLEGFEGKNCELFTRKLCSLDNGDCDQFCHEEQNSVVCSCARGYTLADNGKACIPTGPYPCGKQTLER
Factor XIa, sequence (P03951 388-625): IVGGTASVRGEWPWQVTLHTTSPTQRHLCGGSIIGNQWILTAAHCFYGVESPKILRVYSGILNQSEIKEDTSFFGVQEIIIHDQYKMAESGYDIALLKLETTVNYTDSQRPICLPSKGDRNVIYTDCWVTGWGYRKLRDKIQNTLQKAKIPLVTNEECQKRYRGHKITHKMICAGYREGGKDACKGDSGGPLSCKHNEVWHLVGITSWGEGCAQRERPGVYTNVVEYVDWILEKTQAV
Factor XIa, sequence (P03951 19-387 partner): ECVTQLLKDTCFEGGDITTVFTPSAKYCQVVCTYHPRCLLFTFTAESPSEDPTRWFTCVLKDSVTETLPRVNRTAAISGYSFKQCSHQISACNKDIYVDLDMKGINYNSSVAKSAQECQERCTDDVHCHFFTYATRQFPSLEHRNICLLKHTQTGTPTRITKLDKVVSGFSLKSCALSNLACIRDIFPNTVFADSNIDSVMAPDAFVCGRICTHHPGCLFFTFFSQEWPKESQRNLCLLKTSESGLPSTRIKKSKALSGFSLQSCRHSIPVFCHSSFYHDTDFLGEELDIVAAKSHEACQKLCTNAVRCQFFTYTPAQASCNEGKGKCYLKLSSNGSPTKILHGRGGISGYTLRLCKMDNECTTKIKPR

| Compound | Papp A→B at 60 min, 10 μM [1] [×10⁻⁶ cm/s] | Papp B→A at 40 min, 10 μM [1] [×10⁻⁶ cm/s] | Ratio: FXa/FXIa (Factor Xa) | pIC50 (Factor XIa) | Ratio: Thrombin/FXIa (Thrombin) |
| --- | --- | --- | --- | --- | --- |
| CC[C@@H](NC(=O)N1C(=O)[C@H](Cc2ccnc(N)c2)[C@H]1C(=O)N(C)c1ccn(C)n1)C1CCCCC1 [Compound 1-47, (2S,3R)-3-((2-aminopyridin-4-yl)methyl)-N2-(1-methyl-1H-pyrazol-3-yl)-N1-((R)-1-cyclohexylpropyl)-N2-methyl-4-oxoazetidine-1,2-dicarboxamide] | < 10 | 31 to 50 | I (“I” indicates > 500) | > 8.00 | H (“H” indicates 101-1000) |
| CC[C@@H](NC(=O)N1C(=O)[C@H](Cc2cc(C)nc(N)c2)[C@H]1C(=O)N(C)c1nccn1C)c1ccccc1 [Compound 1-51, (2S,3R)-3-((2-amino-6-methylpyridin-4-yl)methyl)-N2-(1-methyl-1H-imidazol-2-yl)-N1-((R)-1-phenylpropyl)-N2-methyl-4-oxoazetidine-1,2-dicarboxamide] | < 10 | 31 to 50 | I (“I” indicates > 500) | > 8.00 | H (“H” indicates 101-1000) |
| C[C@@H](NC(=O)N1C(=O)[C@H](Cc2ccnc(N)c2)[C@H]1C(=O)N(C)c1ccn(C)n1)C1CCCCC1 [Compound 1-50, (2S,3R)-3-((2-aminopyridin-4-yl)methyl)-N2-(1-methyl-1H-pyrazol-3-yl)-N1-((R)-1-cyclohexylethyl)-N2-methyl-4-oxoazetidine-1,2-dicarboxamide] | < 10 | 31 to 50 | I (“I” indicates > 500) | 7.00 to 8.00 | H (“H” indicates 101-1000) |
| CC[C@@H](NC(=O)N1C(=O)[C@H](Cc2ccnc(N)c2)[C@H]1C(=O)N(C)c1nccn1C)c1cccc(Cl)c1 [Compound 1-35, (2S,3R)-3-((2-aminopyridin-4-yl)methyl)-N2-(1-methyl-1H-imidazol-2-yl)-N1-((R)-1-(3-chlorophenyl)propyl)-N2-methyl-4-oxoazetidine-1,2-dicarboxamide] | < 10 | 31 to 50 | H (“H” indicates 101-1000) | > 8.00 | H (“H” indicates 101-1000) |
| CC(C)[C@@H](NC(=O)N1C(=O)[C@H](Cc2ccnc(N)c2)[C@H]1C(=O)N(C)c1ccn(C)n1)C1CCCCC1 [Compound 1-57, (2S,3R)-3-((2-aminopyridin-4-yl)methyl)-N2-(1-methyl-1H-pyrazol-3-yl)-N1-((R)-1-cyclohexyl-2-methylpropyl)-N2-methyl-4-oxoazetidine-1,2-dicarboxamide] | 11 to 30 | 11 to 30 | I (“I” indicates > 500) | 7.00 to 8.00 | H (“H” indicates 101-1000) |
| CC[C@@H](NC(=O)N1C(=O)[C@H](Cc2ccnc(N)c2)[C@H]1C(=O)N(C)c1ccnn1C)c1ccccc1 [Compound 1-92, (2S,3R)-3-((2-aminopyridin-4-yl)methyl)-N2-(1-methyl 1H-pyrazol-5-yl)-N1-((R)-1-phenylpropyl)-N2-methyl-4-oxoazetidine-1,2-dicarboxamide] | < 10 | 31 to 50 | I (“I” indicates > 500) | > 8.00 | H (“H” indicates 101-1000) |
| (2S,3R)-3-((2-amino-6-methylpyridin-4-yl)methyl)-N2-(1-methyl-1H-imidazol-2-yl)-N1-((R)-1-(3-fluorophenyl)propyl)-N2-methyl-4-oxoazetidine-1,2-dicarboxamide [Compound 1-120] | – | – | I (“I” indicates > 500) | > 8.00 | H (“H” indicates 101-1000) |
